Experimental data reported in patent publication US9464092B2, “Transient protection of normal cells during chemotherapy” (G1 Therapeutics, Inc., priority 2013, dated 2016).

Columns and labels:
[1] = system: telomerized human diploid fibroblasts (tHDFs); assay: γ-H2AX DNA damage assay in tHDF cells with chemotherapy; format: cell-based; settings: pretreatment before carboplatin, doxorubicin, etoposide, camptothecin or paclitaxel
Experimental: (§1) Cell survival was determined by Cell TiterGlo assay per manufacturer's recommendations. For both γ-H2AX and caspase 3/7 assays, cells were plated and allowed to become adherent for 24 hours. […] For γ-H2AX, cells were harvested for analysis 8 hours after chemotherapy exposure. For the γ-H2AX assay, cells were fixed, permeabilized, and stained with anti-γ-H2AX as per the γ-H2AX Flow Kit (Millipore) and quantitated by flow cytometry. Data was analyzed using FlowJo 2.2 software developed by TreeStar, Inc. For the in vitro caspase 3/7 assay, cells were harvested 24 hours post chemotherapy treatment. Caspase 3/7 activation was measured using the Caspase-Glo® 3/7 Assay System (Promega) per manufacturer's recommendations.

[2] = system: WM2664 cells (CDK4/6-dependent cell line); assay: Cell cycle arrest by propidium iodide flow cytometry, WM2664; format: cell-based; settings: 300 nM, 24 hours
Description: To test the ability of Cdk4/6 inhibitors to induce a clean G1-arrest, a cell based screening method was used consisting of two Cdk4/6-dependent cell lines (tHS68 and WM2664; Rb-positive) and one Cdk4/6-independent (A2058; Rb-negative) cell line. […] At the conclusion of the experiment, cells were harvested, fixed, and stained with propidium iodide (a DNA intercalator), which fluoresces strongly red (emission maximum 637 nm) when excited by 488 nm light. Samples were run on Dako Cyan flow cytometer and >10,000 events were collected for each sample. Data were analyzed using FlowJo 2.2 software developed by TreeStar, Inc.

tHS68 human fibroblasts = assay: Protection from chemotherapy-induced cell death (Cell TiterGlo); format: cell-based; settings: etoposide 5 μM or carboplatin 100 μM
Experimental: as §1

[3] = system: human renal proximal tubule cells; assay: Cell cycle analysis of renal proximal tubule cells with etoposide or cisplatin; format: cell-based; settings: 10-1000 nM with etoposide or cisplatin
Experimental: (§2) The ability of Cdk4/6 inhibitors to protect human renal proximal tubule cells from chemotherapy induced DNA damage was analyzed using etoposide and cisplatin. […] At the conclusion of the experiment, cells were harvested, fixed, and stained with propidium iodide (a DNA intercalator), which fluoresces strongly red (emission maximum 637 nm) when excited by 488 nm light. Samples were run on Dako Cyan flow cytometer.

[4] = system: RB-intact, Cdk4/6-dependent cell line (WM2664 or tHS68); assay: EdU proliferation, RB-intact Cdk4/6-dependent cell line; settings: 24 hours
HSPCs (bone marrow) = assay: HSPC proliferation in bone marrow by EdU incorporation after oral gavage; format: in vivo, mice
Experimental: Mice were then sacrificed at the indicated times (0, 12, 24, 36, or 48 hours following compound administration), and bone marrow was harvested (n=3 mice per time point), as previously described (Johnson et al. J. Clin. Invest. (2010) 120(7), 2528-2536). Four hours before the bone marrow was harvested, mice were treated with 100 μg of EdU by intraperitoneal injection (Invitrogen). Bone marrow mononuclear cells were harvested and immunophenotyped using previously described methods and percent EdU positive cells were then determined (Johnson et al. J. Clin. Invest. (2010) 120(7), 2528-2536). In brief, HSPCs were identified by expression of lineage markers (Lin-), Sca1 (S+), and c-Kit (K+).
Four hours before animals were sacrificed and the bone marrow was harvested, mice were treated with 100 μg of EdU by intraperitoneal injection. Three mice per group were sacrificed at 12 hours and the remaining three animals per group were sacrificed at 24 hours. Results are shown in FIG. 6A as the ratio of EdU positive cells for treated animals at 12 or 24 hour time points compared to control.
Further experiments were completed with Compound T examining dose response and longer periods of compound treatment. […] […].
Both compounds were administered at 150 mg/kg by oral gavage. One hour prior to harvesting bone marrow, EdU was IP injected to label cycling cells. Bone marrow was harvested at 12, 24, 36, and 48 hours after compound treatment and the percentage of EdU positive HSPC cells was determined at each time point.

[5] = system: 456 (395 non-mutant) kinases; assay: DiscoveRx KINOMEscan kinase profiling; format: binding; settings: 1000 nM
Experimental: The compound was screened using a single concentration of 1000 nM (>1000 times the 1050 on Cdk4). Results from this screen confirmed the high potency against Cdk4 and high selectivity versus Cdk2.

[6] = system: human renal proximal tubule cells; assay: DNA cell cycle analysis in human renal proximal tubule cells; format: cell-based; settings: 24 hours, dose dependent
Description: as §2, with “To test the” for “The”, “induce a clean G1-arrest in non-hematopoietic cells, G1 arrest was examined in” for “protect”, “cells.” for “cells from chemotherapy induced DNA damage was analyzed using etoposide and cisplatin.”

SMILES: CN1CCN(c2ccc(Nc3ncc4cc5n(c4n3)C3(CCCCC3)CNC5=O)nc2)CC1 [Compound T]
- DNA damage as measured by γ-H2AX formation [1]: attenuated DNA damage
- effect on S-phase peak [2]: causes a loss of the S-phase peak
- protection from chemotherapy-induced cell death (cell survival) (tHS68 human fibroblasts): selective protection from carboplatin and etoposide-induced cell death
- protection from chemotherapy induced DNA damage (cell cycle distribution) [3]: protects renal proximal tubule epithelial cells from chemotherapy induced DNA damage
- effect on proliferation (EdU, percent of cells in S-phase) [4]: inhibits the Rb-positive cell line (tHS68)
- EdU incorporation into HSPCs at 12 and 24 hours compared to control (HSPCs (bone marrow); 150 mg/kg oral gavage): reduction in EdU incorporation at 12 hours which was starting to return to normal at 24 hours
- G1-arrest of bone marrow stem cells (HSPC) (HSPCs (bone marrow); oral gavage, mice): dose dependent, transient, and reversible G1-arrest
- number of 395 non-mutant kinases inhibited ([5]; inhibitory threshold of 65%): 92
- percent of 395 non-mutant kinases inhibited ([5]; inhibitory threshold of 65%): 23.3%
- number of 395 non-mutant kinases inhibited ([5]; inhibitory threshold of 90%): 31
- percent of 395 non-mutant kinases inhibited ([5]; inhibitory threshold of 90%): 7.8%
- number of 395 non-mutant kinases inhibited ([5]; inhibitory threshold of 99%): 6
- percent of 395 non-mutant kinases inhibited ([5]; inhibitory threshold of 99%): 1.5%
- G1 cell cycle arrest [6]: robust G1 cell cycle arrest
